The results in this text go back to BindingDB's records for doi:10.1002/cbic.201100121 (Mcmaster University, 2011).

SMILES strings stand for the structures.

The target in the assay is T1, Homoserine kinase (Escherichia coli (strain K12), UniProt P00547).
T1 sequence (P00547 whole entry): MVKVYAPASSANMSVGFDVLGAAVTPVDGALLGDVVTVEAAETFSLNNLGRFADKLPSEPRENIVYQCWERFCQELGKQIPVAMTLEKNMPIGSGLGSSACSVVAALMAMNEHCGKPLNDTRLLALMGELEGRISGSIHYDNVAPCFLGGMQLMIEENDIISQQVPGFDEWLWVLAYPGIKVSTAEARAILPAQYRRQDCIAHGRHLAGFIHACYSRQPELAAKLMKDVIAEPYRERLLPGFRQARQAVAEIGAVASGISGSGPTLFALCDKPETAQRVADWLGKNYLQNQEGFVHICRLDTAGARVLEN
Kind of assay: Enzyme Inhibition Assay. Particulars: pH 7.5; 37 °C. The source says: The phosphorylation of L-Hse was monitored by coupling the formation of ADP with pyruvate kinase and lactate dehydrogenase (PK/LDH). The resulting oxidation of NADH was monitored at 340 nm by using a SpectraMax plate reader in a 96-well format.

What is called Ki is a dissociation constant, usually derived from enzyme kinetics or from competition with a known ligand. In turn, `CC1NN(c2ccccc2)c2nc(C(F)(F)F)cc(O)c21` (stereo unspecified) [Thr1 inhibitor, 6] displayed a Ki of 8.6 µM.

In the case of `CC(C)Cc1nc2sc3c(c2c(=O)o1)CCCCC3` [Thr1 inhibitor, 5], the Ki was found to be 35.8 µM. The value for `C=CC(=O)c1ccc2ccccc2c1` [Thr1 inhibitor, 1] was 32 µM; that for `O=C1C(O)c2cc(O)c(O)cc2OC1c1ccc(O)c(O)c1` (stereo unspecified) was 27.1 µM.

`O=C1OC2C=CCC=C2C(=O)C1Cc1c(O)c2ccccc2oc1=O` (stereo unspecified) [Thr1 inhibitor, 4]: the affinity, expressed as Ki, was 0.46 µM. `CC(=O)C(C#N)C(=O)Nc1cc(Br)ccc1Br` (stereo unspecified) showed an inhibitory constant (Ki) of 12 µM.
